Test results: patent US20230115945A1, “AMINOPYRIMIDINE COMPOUNDS” (TYRA BIOSCIENCES, INC., priority 2019, published 2023)
pKd: −log10 of the molar value.

Tests used:
Conditions in all cases: 11-point 3-fold dilution, qPCR readout
FGFR2 = target: T1, FGFR2 (Homo sapiens, UniProt P21802); assay: Kinase binding assay (Kd), FGFR2
T1 construct: made in house; host or cells: E. coli host derived from BL21, infected with T7 phage
Description: (§1) Kinase-tagged T7 phage strains were prepared in an E. coli host derived from the BL21 strain. E. coli were grown to log-phase and infected with T7 phage and incubated with shaking at 32° C. until lysis. The lysates were centrifuged and filtered to remove cell debris. Streptavidin-coated magnetic beads were treated with biotinylated small molecule ligands for 30 minutes at room temperature to generate affinity resins for kinase assays. The liganded beads were blocked with excess biotin and washed with blocking buffer SeaBlock (Pierce), 1% BSA, 0.05% Tween 20, 1 mM DTT to remove unbound ligand and to reduce non-specific binding. Binding reactions were assembled by combining kinases, liganded affinity beads, and test compounds in 1× binding buffer (20% SeaBlock, 0.17×PBS, 0.05% Tween 20, 6 mM DTT).
(§2) Test compounds were prepared as 111X stocks in 100% DMSO. Kds were determined using an 11-point 3-fold compound dilution series with three DMSO control points. All compounds for Kd measurements are distributed by acoustic transfer (non-contact dispensing) in 100% DMSO. The compounds were then diluted directly into the assays such that the final concentration of DMSO was 0.9%. All reactions performed in polypropylene 384-well plate. Each was a final volume of 0.02 ml. The assay plates were incubated at room temperature with shaking for 1 hour and the affinity beads were washed with wash buffer (lx PBS, 0.05% Tween 20). The beads were then re-suspended in elution buffer (lx PBS, 0.05% Tween 20, 0.5 μM non-biotinylated affinity ligand) and incubated at room temperature with shaking for 30 minutes. The kinase concentration in the eluates was measured by qPCR.
(§3) Binding constants were calculated with a standard dose-response curve using the Hill equation: […]
(§4) The Hill Slope was set to −1. Curves were fitted using a non-linear least square fit with the Levenberg-Marquardt algorithm.

FGFR1 = target: T2, FGFR1 (Homo sapiens, UniProt P11362); assay: Kinase binding assay (Kd), FGFR1
T2 construct: made in house; host or cells: E. coli host derived from BL21, infected with T7 phage
T2 sequence (P11362 22-822): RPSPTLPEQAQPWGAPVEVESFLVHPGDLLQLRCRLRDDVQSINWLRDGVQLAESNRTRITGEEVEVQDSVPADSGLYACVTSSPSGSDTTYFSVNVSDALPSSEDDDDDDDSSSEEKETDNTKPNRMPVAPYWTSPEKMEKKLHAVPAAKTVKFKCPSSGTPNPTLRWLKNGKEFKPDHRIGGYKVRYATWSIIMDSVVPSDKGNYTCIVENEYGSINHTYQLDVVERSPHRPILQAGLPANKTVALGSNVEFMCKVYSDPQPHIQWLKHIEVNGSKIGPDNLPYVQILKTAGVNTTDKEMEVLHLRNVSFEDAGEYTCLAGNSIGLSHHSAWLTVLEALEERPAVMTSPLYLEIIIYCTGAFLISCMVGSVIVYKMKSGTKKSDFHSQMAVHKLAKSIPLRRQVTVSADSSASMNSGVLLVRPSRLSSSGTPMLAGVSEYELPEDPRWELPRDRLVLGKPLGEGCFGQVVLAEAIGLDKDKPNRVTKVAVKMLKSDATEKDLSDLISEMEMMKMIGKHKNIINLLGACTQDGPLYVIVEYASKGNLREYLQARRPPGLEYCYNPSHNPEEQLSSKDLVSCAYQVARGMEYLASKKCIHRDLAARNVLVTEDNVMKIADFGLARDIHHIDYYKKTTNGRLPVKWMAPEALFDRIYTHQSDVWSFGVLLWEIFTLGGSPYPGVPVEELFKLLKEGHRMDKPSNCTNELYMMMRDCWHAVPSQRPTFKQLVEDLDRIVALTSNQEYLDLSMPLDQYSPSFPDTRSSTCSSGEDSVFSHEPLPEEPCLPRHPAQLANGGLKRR
Description: as §1, §2, §3, §4

FGFR3 (V555M) = target: T3, FGFR3 (V555M) (Homo sapiens, UniProt P22607, V555M); assay: Kinase binding assay (Kd), FGFR3 (V555M)
T3 construct: made in house; host or cells: E. coli host derived from BL21, infected with T7 phage
T3 sequence (P22607 23-806 V555M): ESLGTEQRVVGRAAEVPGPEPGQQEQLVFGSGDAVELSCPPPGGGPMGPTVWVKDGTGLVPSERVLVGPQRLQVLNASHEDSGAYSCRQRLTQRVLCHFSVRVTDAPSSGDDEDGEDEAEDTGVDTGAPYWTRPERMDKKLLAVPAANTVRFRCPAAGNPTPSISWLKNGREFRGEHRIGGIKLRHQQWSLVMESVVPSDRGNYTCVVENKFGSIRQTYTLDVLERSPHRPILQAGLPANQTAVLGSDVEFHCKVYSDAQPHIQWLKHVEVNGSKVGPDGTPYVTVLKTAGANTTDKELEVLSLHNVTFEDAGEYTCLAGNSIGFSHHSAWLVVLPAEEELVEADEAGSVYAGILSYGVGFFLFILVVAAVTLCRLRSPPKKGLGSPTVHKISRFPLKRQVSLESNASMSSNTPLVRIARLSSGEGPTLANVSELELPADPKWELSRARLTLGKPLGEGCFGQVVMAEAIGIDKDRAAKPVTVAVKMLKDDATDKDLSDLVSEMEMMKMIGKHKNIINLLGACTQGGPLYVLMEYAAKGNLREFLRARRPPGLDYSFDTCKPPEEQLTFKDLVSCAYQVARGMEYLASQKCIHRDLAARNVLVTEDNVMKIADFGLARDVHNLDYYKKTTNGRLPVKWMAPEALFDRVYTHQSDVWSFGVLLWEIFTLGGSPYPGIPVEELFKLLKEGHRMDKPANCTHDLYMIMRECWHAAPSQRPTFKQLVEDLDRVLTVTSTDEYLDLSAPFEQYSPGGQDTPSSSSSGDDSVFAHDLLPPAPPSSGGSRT
Description: as §1, §2, §3, §4

FGFR3 = target: T4, FGFR3 (Homo sapiens, UniProt P22607); assay: Kinase binding assay (Kd), FGFR3
T4 construct: made in house; host or cells: E. coli host derived from BL21, infected with T7 phage
T4 sequence (P22607 23-806): as the sequence (P22607 23-806 V555M) above, with M533V counted along it
Description: as §1, §2, §3, §4

FGFR4 = target: T5, FGFR4 (Homo sapiens, UniProt P22455); assay: Kinase binding assay (Kd), FGFR4
T5 construct: made in house; host or cells: E. coli host derived from BL21, infected with T7 phage
T5 sequence (P22455 22-802): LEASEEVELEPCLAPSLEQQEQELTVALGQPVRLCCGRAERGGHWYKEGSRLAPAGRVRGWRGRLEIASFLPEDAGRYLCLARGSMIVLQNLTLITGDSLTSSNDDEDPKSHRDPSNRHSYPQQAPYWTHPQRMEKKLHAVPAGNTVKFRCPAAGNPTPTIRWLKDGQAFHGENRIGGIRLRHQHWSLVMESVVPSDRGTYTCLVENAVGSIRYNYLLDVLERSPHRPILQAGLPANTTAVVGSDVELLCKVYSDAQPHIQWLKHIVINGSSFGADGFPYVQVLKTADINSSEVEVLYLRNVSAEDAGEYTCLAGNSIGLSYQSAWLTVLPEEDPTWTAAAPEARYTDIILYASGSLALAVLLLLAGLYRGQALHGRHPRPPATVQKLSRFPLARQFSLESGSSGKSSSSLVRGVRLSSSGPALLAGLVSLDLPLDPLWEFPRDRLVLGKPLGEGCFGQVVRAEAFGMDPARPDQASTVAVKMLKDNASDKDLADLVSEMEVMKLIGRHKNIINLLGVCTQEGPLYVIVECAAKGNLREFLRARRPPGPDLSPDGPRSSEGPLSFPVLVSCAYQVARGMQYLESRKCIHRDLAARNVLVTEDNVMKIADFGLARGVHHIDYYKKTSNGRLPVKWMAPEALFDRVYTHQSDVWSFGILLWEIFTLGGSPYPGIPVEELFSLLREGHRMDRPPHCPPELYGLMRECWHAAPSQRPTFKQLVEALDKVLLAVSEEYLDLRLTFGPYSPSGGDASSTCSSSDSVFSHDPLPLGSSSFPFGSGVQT
Description: as §1, §2, §3, §4

T1 sequence (P21802 22-821): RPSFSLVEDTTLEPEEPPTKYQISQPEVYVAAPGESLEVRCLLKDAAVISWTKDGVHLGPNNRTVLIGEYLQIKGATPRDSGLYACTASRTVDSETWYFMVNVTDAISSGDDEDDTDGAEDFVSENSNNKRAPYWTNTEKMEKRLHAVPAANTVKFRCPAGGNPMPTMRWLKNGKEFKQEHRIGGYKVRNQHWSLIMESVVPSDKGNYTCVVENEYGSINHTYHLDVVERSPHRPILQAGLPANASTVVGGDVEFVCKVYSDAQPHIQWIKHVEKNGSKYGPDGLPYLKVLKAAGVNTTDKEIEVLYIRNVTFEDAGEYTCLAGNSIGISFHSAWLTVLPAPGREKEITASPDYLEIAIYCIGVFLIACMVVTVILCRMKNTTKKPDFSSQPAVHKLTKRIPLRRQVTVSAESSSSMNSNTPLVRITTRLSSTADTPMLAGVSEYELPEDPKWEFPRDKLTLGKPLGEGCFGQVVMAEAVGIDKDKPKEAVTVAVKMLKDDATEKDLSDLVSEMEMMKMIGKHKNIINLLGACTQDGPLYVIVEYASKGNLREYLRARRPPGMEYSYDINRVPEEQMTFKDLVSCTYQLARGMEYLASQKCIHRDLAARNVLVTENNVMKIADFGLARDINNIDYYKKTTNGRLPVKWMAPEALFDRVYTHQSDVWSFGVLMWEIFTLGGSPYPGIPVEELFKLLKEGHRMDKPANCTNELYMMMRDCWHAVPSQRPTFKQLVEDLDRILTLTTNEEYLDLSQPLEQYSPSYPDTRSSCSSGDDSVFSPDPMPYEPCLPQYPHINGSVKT

Compound | Kd (FGFR2) [nM] | Kd (FGFR1) [nM] | Kd (FGFR3 (V555M)) [nM] | Kd (FGFR3) [nM] | pKd (FGFR4)
C=CC(=O)Nc1ccc2c(ccn2-c2nc(Nc3ccc(N4CCS(=N)(=O)CC4)cc3)ncc2Cl)c1 [Example 72] | 100 | 77 | 5.7 | 17 | 6.62
COc1cc(Nc2ncc(C)c(-c3c[nH]c4c(OC)cccc34)n2)ccc1N=S(C)(C)=O [Example 33, N-[4-[[dimethyl(oxo)-λ^6-sulfanylidene]amino]-3-methoxy-phenyl]-4-(7-methoxy-1H-indol-3-yl)-5-methyl-pyrimidin-2-amine] | 6 | 4 | 2 | 19 | 6.92
CCN1CCS(=O)(=Nc2ccc(Nc3ncc(Cl)c(-c4c[nH]c5ccccc45)n3)c(OC)c2)CC1 [Example 39, 5-Chloro-4-(1H-indol-3-yl)-N-[2-methoxy-4-[(4-ethyl-1-oxo-1,4-thiazinan-1-ylidene)-amino]phenyl]pyrimidin-2-amine] | 170 | 58 | 6 | 57 | 7.18
COc1cc(N2CCS(=N)(=O)CC2)ccc1Nc1ncc(C)c(-n2ccc3ccccc32)n1 [Example 46, N-[4-(1-imino-1-oxo-1,4-thiazinan-4-yl)-2-methoxy-phenyl]-4-indol-1-yl-5-methyl-pyrimidin-2-amine] | 4400 | 2700 | 160 | 2200 | 5.25
Cn1cc(-c2nc(Nc3ccc(S(=N)(=O)C4CC4)cc3)ncc2Cl)c2ccccc21 (stereo not shown) [Example 50, 5-Chloro-N-[4-(cyclopropyl-sulfonimidoyl)phenyl]-4-(1-methylindol-3-yl)pyrimidin-2-amine] | 170 | 330 | 26 | 190 | 5.52
CCC(=O)Nc1cccc2c1ccn2-c1nc(Nc2ccc(N=S(C)(C)=O)cc2)ncc1Cl [Example 77, N-[1-[5-Chloro-2-[4-[[dimethyl(oxo)-λ^6-sulfanylidene]amino]anilino]-pyrimidin-4-yl]indol-4-yl]propanamide] | 260 | 170 | 7 | 130 | 5.59
CS(C)(=O)=Nc1ccc(Nc2cc(-c3c[nH]c4ccccc34)ncn2)cc1 [Example 12, N-[4-[[dimethyl(oxo)-λ^6-sulfanylidene]amino]phenyl]-6-(1H-indol-3-yl)pyrimidin-4-amine] | 3300 | 350 | 57 | 370 | 7.24
Cc1cnc(Nc2ccc(N=S(C)(C)=O)cc2)nc1-n1ccc2ccccc21 [Example 14, N-[4-[[dimethyl(oxo)-λ^6-sulfanylidene]amino]phenyl]-4-indol-1-yl-5-methyl-pyrimidin-2-amine] | 110 | 190 | 9 | 170 | 5.82
CS(C)(=O)=Nc1ccc(Nc2ncc(Cl)c(-n3ccc4cc(NC(=O)C5CC5)ccc43)n2)cc1 [Example 80, N-[1-[5-Chloro-2-[4-[[dimethyl(oxo)-λ^6-sulfanylidene]amino]anilino]-pyrimidin-4-yl]indol-5-yl]cyclopropanecarboxamide] | 680 | 740 | 23 | 340 | 5.28
C=CC(=O)Nc1ccc2c(c1)c(C)cn2-c1nc(Nc2ccc(N=S(C)(C)=O)cc2OCC)ncc1Cl [Example 65, N-[1-[5-Chloro-2-[4-[[dimethyl(oxo)-λ^6-sulfanylidene]amino]-2-ethoxy-anilino]pyrimidin-4-yl]-3-methyl-indol-5-yl]prop-2-enamide] | 7900 | 4000 | 970 | 1700 | 5.89
CCC(=O)Nc1ccc2c(ccn2-c2nc(Nc3ccc(N=S(C)(C)=O)cc3)ncc2Cl)c1 [Example 68, N-[1-[5-Chloro-2-[4-[[dimethyl(oxo)-λ^6-sulfanylidene]amino]anilino]-pyrimidin-4-yl]indol-5-yl]propanamide] | 340 | 630 | 24 | 320 | 5.62
COc1cc(S(C)(=N)=O)ccc1Nc1ncc(Cl)c(-n2ccc3ccccc32)n1 (stereo not shown) [Example 41, 5-chloro-4-indol-1-yl-N-[2-methoxy-4-(methyl-sulfonimidoyl)phenyl]pyrimidin-2-amine] | 18000 | 9000 | 180 | 6000 | 5.20
CCC(=O)Nc1cccc2c1ccn2-c1nc(Nc2ccc(N3CCS(=N)(=O)CC3)cc2)ncc1Cl [Example 83, N-[1-[5-Chloro-2-[4-(1-imino-1-oxo-1,4-thiazinan-4-yl)anilino]pyrimidin-4-yl]indol-4-yl]propanamide] | 79 | 86 | 3 | 59 | 5.96
N=S1(=O)CCN(c2ccc(Nc3ncc(Cl)c(-n4ccc5c(N)cccc54)n3)cc2)CC1 [Example 82, 1-[5-Chloro-2-[4-(1-imino-1-oxo-1,4-thiazinan-4-yl)anilino]pyrimidin-4-yl]indol-4-amine] | 50 | 59 | 2 | 42 | 6.35
CC(C)COc1cc(N=S(C)(C)=O)ccc1Nc1ncc(Cl)c(-c2c[nH]c3ccccc23)n1 [Example 4, 5-chloro-N-[4-[[dimethyl(oxo)-λ^6-sulfanylidene]amino]-2-isobutoxy-phenyl]-4-(1H-indol-3-yl)pyrimidin-2-amine] |  | 21000 | 4100 |  | 6.68
COc1cc(N2CCS(=N)(=O)CC2)ccc1Nc1nccc(-n2ccc3ccccc32)n1 [Example 45, N-[4-(1-Imino-1-oxo-1,4-thiazinan-4-yl)-2-methoxy-phenyl]-4-indol-1-yl-pyrimidin-2-amine] | 9000 | 7800 | 1100 | 4900 | 5.29
CS(C)(=O)=Nc1cccc(Nc2ncc(Cl)c(-c3c[nH]c4ccccc34)n2)c1 [Example 7, 5-chloro-N-[3-[[dimethyl(oxo)-λ^6-sulfanylidene]amino]phenyl]-4-(1H-indol-3-yl)pyrimidin-2-amine] | 140 | 21 | 4 | 40 | 6.55
Cc1cnc(Nc2ccc(S(C)(=N)=O)cc2)nc1-c1c[nH]c2ccccc12 (stereo not shown) [Example 48, 4-(1H-Indol-3-yl)-5-methyl-N-[4-(methylsulfonimidoyl)-phenyl]pyrimidin-2-amine] | 6 | 7 | 2 | 16 | 6.80
C=CC(=O)Nc1ccc2c(ccn2-c2nc(Nc3ccc(S(C)(=N)=O)cc3OC)ncc2Cl)c1 (stereo not shown) [Example 71, N-[1-[5-chloro-2-[2-methoxy-4-(methylsulfonimidoyl)-anilino]pyrimidin-4-yl]indol-5-yl]prop-2-enamide] | 3000 | 6000 | 140 | 1500 | 5.47
C=CC(=O)Nc1cc(N=S(C)(C)=O)ccc1Nc1nccc(-n2ccc3ccccc32)n1 [Example 19, N-[5-[[dimethyl(oxo)-λ^6-sulfanylidene]amino]-2-[(4-indol-1-ylpyrimidin-2-yl)amino]phenyl]prop-2-enamide] |  |  | 3000 |  | 
CS(C)(=O)=Nc1ccc(Nc2cc(-n3ccc4ccccc43)ncn2)cc1 [Example 15, N-[4-[[dimethyl(oxo)-λ^6-sulfanylidene]amino]phenyl]-6-indol-1-yl-pyrimidin-4-amine] | 14000 | 29000 | 3700 | 18000 | 
CC(=O)c1cn(-c2nc(Nc3ccc(N=S(C)(C)=O)cc3)ncc2C)c2ccccc12 [Example 21, 1-[1-[2-[4-[[Dimethyl(oxo)-λ^6-sulfanylidene]amino]anilino]-5-methyl-pyrimidin-4-yl]indol-3-yl]ethanone] |  |  |  | 27000 | 
C=CC(=O)Nc1ccc2c(ccn2-c2nc(Nc3ccc(S(C)(=N)=O)cc3OC)ncc2Cl)c1 (single isomer, unassigned) [Example 88, N-[1-[5-Chloro-2-[2-methoxy-4-(methylsulfonimidoyl)-anilino]-pyrimidin-4-yl]indol-5-yl]prop-2-enamide] | 26000 | 20000 | 840 | 8800 | 
CS(C)(=O)=Nc1ccc(Nc2nccc(-n3ccc4ccccc43)n2)c(N)c1 [Example 18, 4-[[dimethyl(oxo)-λ^6-sulfanylidene]amino]-N1-(4-indol-1-ylpyrimidin-2-yl)benzene-1,2-diamine] | 21000 |  | 12000 | 20000 | 
